From patent US20150057346A1, “METHODS OF MAINTAINING INTRAMUSCULAR MYOGLOBIN LEVELS, MAINTAINING MAXIMAL AEROBIC CAPACITY, AND ENHANCING THE OXIDATIVE CAPACITY OF MUSCLE IN A SUBJECT” (ABBOTT LABORATORIES, priority 2013, published 2015)

Legend:
Myoglobin = assay: Serum myoglobin levels before and after 10 days of bed rest (clinical study, RBM Human DiscoveryMAP); type: in vivo
Method: Example 3 describes a clinical study that was conducted to evaluate the effects of 10 days of bed rest on healthy elderly subjects. The exemplary methods are based, at least in part, on inventors' discovery that serum myoglobin levels change by statistically significant amounts in 18 healthy elderly subjects undergoing 10 days of bed rest. The exemplary methods are also based, at least in part, on inventors' discovery that intervention with HMB altered the change in serum myoglobin levels.
(§1) The 24 healthy subjects initially involved in the study were randomized into two groups. Subjects in the treatment group received two β-hydroxy-β-methylbutyrate (HMB) sachets containing 1.5 grams of Ca-HMB (TSI, Salt Lake City, Utah), 4 grams of maltodextrin, and 200 milligrams of calcium with additional sweetener and flavoring agents. Subjects in the control group received two control sachets that were identical to the HMB sachets with the exclusion Ca-HMB. This study was a double-blinded study. Neither the investigators nor the subjects were informed of the identity of any of the study products during the clinical portion of the study. Subjects were instructed to consume a sachet twice daily by mixing a sachet into a non-caloric, non-caffeinated, non-carbonated, non-milk-based beverage of their choice. Treatment with HMB or Control was initiated 5 days prior to bed rest and was continued until the end of the 10 day bed rest period.
After a diet stabilization of 5 days (ambulatory period), subjects remained in bed continuously for 10 days. While confined to bed rest, subjects were allowed to use the bedside commode for urination or were taken in a wheelchair for toileting. Subjects were given the option of taking a sponge bath or showering in a wheelchair. Prophylactic measures were taken to detect and prevent deep vein thrombosis including a blood D-dimer test followed by an ultrasound examination if D-dimer test was positive, passive range of motion exercise during bed rest, the use of TED hose and SCD over the bed rest period. Subjects were offered medication to help mitigate reflux problems associated with being supine. Subjects were constantly monitored by nursing staff and received a daily physical examination by the study physician.
Fasted blood samples were collected from subjects on Day 1 of bed rest and at the end of bed rest for measurement of biomarkers, including myoglobin.
Rules Based Medicine (Myriad RBM, Inc., Austin, Tex.) data generated from the RBM Human DiscoveryMAP v1.0 consists of n=187 biomarkers measured in serum collected at two time points, pre-bed rest and post-bed rest from 18 elderly subjects. The distribution of each marker was evaluated. Each marker has a least detectable dose (LDD) value, defined as the mean+3 standard deviations (SD) of 20 blank samples. For any subject whose marker result was <LDD, the LDD value as provided by RBM was imputed. If the marker result was >LDD, the original result was used. Any marker in which >30% of all subject's results were imputed was excluded from further statistical analyses. Of the initial n=187 RBM markers, n=63 markers from the RBM dataset were excluded from further analyses, leaving n=124 markers for evaluation.
The Control group was examined to determine the biomarkers that changed over bed rest. Individual univariate dependent t-tests were performed on each of the 124 markers. There were a total of 8 participants who had matched data over bed rest within the Control group.
In order to assess the changes in the markers over bed rest that may be mediated by HMB intervention, individual univariate ANCOVA analyses were subsequently performed on each of the 13 (unadjusted) significant markers from the multiple dependent t-tests. Using a Bonferonni adjusted p-value of 0.0038 (0.05/13), 10 markers, including myoglobin, were significant.

[1] = Body composition (lean mass by DXA) over 10 days of bed rest (clinical study); type: in vivo, human; conditions: over 10 day bed rest, healthy elderly subjects
Text: as §1, with “Subjects were instructed to consume a sachet twice daily by mixing a sachet into a non-caloric, non-caffeinated, non-carbonated, non-milk-based beverage of their choice. Treatment with HMB or Control was initiated 5 days prior to bed rest and was continued until the end of the 10 day bed rest period.” left out
After a diet stabilization of 5 days (ambulatory period), subjects remained in bed continuously for 10 days. […] Subjects were constantly monitored by nursing staff and received a daily physical examination by the study physician.
Body weight was measured at baseline and after bed rest to the nearest 0.1 kilogram on an Ohaus scale (Ohaus Corporation, model 15S, Florham Park, N.J.). Nude body weight was calculated as total body weight minus hospital robe weight. Body height was measured to the nearest 0.1 cm without shoes using a stadiometer. Body mass index (BMI) was calculated as weight/height^2 (kg/m^2). […]

[2] = 10 subjects treated with HMB, after 10 days of bed rest
[3] = serum, pre- to post-bed rest (10 days), n = 10

For `CC(C)(O)CC(=O)O` [HMB, β-hydroxy-β-methylbutyrate], the “average decrease in blood levels of myoglobin” value (Myoglobin; [2]) was 10.2 ng/mL, the “decrease in blood levels of myoglobin (percent)” value (Myoglobin; [2]) was 19% and the “Myoglobin Pre-bed rest Mean” value (Myoglobin; serum, healthy elderly subjects, n = 10, 1.5 g Ca-HMB sachet twice daily from 5 days prior to bed rest, Day 1 of bed rest) was 49.3 ng/mL. The “Myoglobin Post-bed rest Mean” value (Myoglobin; serum, healthy elderly subjects, n = 10, 1.5 g Ca-HMB sachet twice daily, end of 10 day bed rest) was 39.1 ng/mL, the “Myoglobin % Change” value (Myoglobin; [3]) was −19 ± 6% and the “Myoglobin Change” value (Myoglobin; [3]) was -10.2 ± 6.4 ng/mL. The “average loss of total lean mass” value ([1]; p=0.42 paired t-test) was -0.17 ± 0.19 kg and the “average loss of leg lean mass” value ([1]; p=0.65 paired t-test) was -0.08 ± 0.17 kg.
